Data on 30 compounds can be found in patent US11884675B2, “Heterocyclic compounds as triggering receptor expressed on myeloid cells 2 agonists and methods of use” (AMGEN INC., priority 2020, dated 2024).

This assay deals with hTREM2 (Homo sapiens, UniProt Q9NZC2). The assay can be described thus: TREM2 activity by cellular Syk phosphorylation (AlphaScreen/AlphaLISA) in TREM2/DAP12-HEK cells, used for Examples 1-305. Format: cell-based. Also on record: expressed in transfected cells. The following applies: HEK293 Cells. Put shortly: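 Phospho-Syk (Tyr525/526) over total Syk quantified by AlphaScreen in lysates of cloned TREM2/DAP12-overexpressing HEK293 cells after 45 min compound treatment at room temperature, 1% final DMSO. Values expressed relative to 100 nM anti-TREM2 antibody (positive) and isotype IgG (negative) controls; curves fitted with 4-parameter logistic model.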
Background: Bead proximity is the source of the signal in Alpha formats.

hTREM2, sequence (Q9NZC2 19-230): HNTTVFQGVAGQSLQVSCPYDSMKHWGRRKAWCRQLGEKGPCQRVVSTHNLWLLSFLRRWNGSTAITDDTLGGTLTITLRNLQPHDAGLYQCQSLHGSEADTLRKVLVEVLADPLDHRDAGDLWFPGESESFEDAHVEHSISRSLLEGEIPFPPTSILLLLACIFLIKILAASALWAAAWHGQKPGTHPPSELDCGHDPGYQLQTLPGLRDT
hTREM2, sequence (O43914 22-113 partner): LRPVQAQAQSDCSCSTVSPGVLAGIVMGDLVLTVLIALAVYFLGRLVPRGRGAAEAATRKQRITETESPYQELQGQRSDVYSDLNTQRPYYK

With `Cc1nc2nc(N3CCO[C@H]([C@@H]4CCOC4)C3)nc(-c3ccc(F)cc3F)c2nc1C` [Example 243, (R)-4-(4-(2,4-difluorophenyl)-6,7-dimethylpteridin-2-yl)-2-((R)-tetrahydrofuran-3-yl)morpholine], the EC50 lay within 50 to 500 nM and the “hTREM2 Emax” value was “++++ (Emax>250)”.
In the case of `Cc1ccc(-c2nc([C@H]3CCO[C@H](c4ccnc(C)c4)C3)nc3nc(C)c(C)nc23)c(F)c1` [Example 286, 4-(2-fluoro-4-methylphenyl)-6,7-dimethyl-2-((2S,4S)-2-(2-methylpyridin-4-yl)tetrahydro-2H-pyran-4-yl)pteridine], the EC50 was at most 50 nM; the “hTREM2 Emax” value was “+++ (Emax>150 and ≤250)”.
For the compound `Cc1cnc2c(-c3ccc(Cl)cc3F)nc([C@@H]3CCO[C@H](c4cnc(C)nc4)C3)nc2n1` (single isomer, unassigned) [Example 174], the EC50 was in the range of 50 to 500 nM; the “hTREM2 Emax” value is “+++ (Emax>150 and ≤250)”.
For `CCn1cc([C@H]2CN(c3cc4nc(C)ccc4c(-c4ccc(Cl)cc4F)n3)CCO2)cn1` [Example 239, (S)-4-(5-(4-chloro-2-fluorophenyl)-2-methyl-1,6-naphthyridin-7-yl)-2-(1-ethyl-1H-pyrazol-4-yl)morpholine], the EC50 is 3000 to 100000 nM; the “hTREM2 Emax” value was “+++ (Emax>150 and ≤250)”.
For `Cc1ncc([C@@H]2C[C@H](c3nc(-c4ccc(Cl)cc4F)c4nc(C)c(C)nc4n3)CCO2)cn1` [Example 282, 4-(4-chloro-2-fluorophenyl)-6,7-dimethyl-2-((2S,4R)-2-(2-methylpyrimidin-5-yl)tetrahydro-2H-pyran-4-yl)pteridine], the EC50 was 500 to 3000 nM; the “hTREM2 Emax” value is “++ (Emax>100 and ≤150)”.
In the case of `Cn1cc([C@H]2CN(c3nc(-c4ccc(Cl)cc4F)c4ccc(Cl)nc4n3)CCO2)cn1` [Example 283, (S)-4-(7-chloro-4-(4-chloro-2-fluorophenyl)pyrido[2,3-d]pyrimidin-2-yl)-2-(1-methyl-1H-pyrazol-4-yl)morpholine], the EC50 lay in the range of 500 to 3000 nM; the “hTREM2 Emax” value was “++ (Emax>100 and ≤150)”.
Turning to `Cc1nc2nc([C@H]3CCO[C@@H](c4cnn(C)c4)C3)nc(-c3ccc(Cl)cc3F)c2nc1C` (single isomer, unassigned) [Example 178], the EC50 is at most 50 nM and the “hTREM2 Emax” value is listed as “++++ (Emax>250)”.
On the same counts, the results for `Cc1cc([C@@H]2CN(c3nc(-c4ccc(Cl)cc4F)c4cc(C)c(C)nc4n3)CCO2)cnn1` (single isomer, unassigned) [Example 105] are at most 50 nM and “++++ (Emax>250)”.
Turning to `Cc1cc2c(-c3ccc(Cl)cc3F)nc([C@H]3CCO[C@@H](c4cnn(C5CC5)c4)C3)nc2nc1C` (single isomer, unassigned) [Example 199], the EC50 is at most 50 nM and the “hTREM2 Emax” value was “++++ (Emax>250)”.
On the same counts, the results for `Cc1cc([C@H]2CN(c3cc4nc(C)ccc4c(-c4ccc(Cl)cc4F)n3)CCO2)ccn1` [Example 151, 5-(4-chloro-2-fluorophenyl)-2-methyl-7-((2S)-2-(2-methyl-4-pyridinyl)-4-morpholinyl)-1,6-naphthyridine] are 50 to 500 nM and “++++ (Emax>250)”.
Turning to `Cc1nc2nc([C@@H]3CCO[C@@H](c4cnn(C)c4)C3)cc(-c3ccc(Cl)cc3F)c2nc1C` [Example 249, 8-(4-chloro-2-fluorophenyl)-2,3-dimethyl-6-((2R,4R)-2-(1-methyl-1H-pyrazol-4-yl)tetrahydro-2H-pyran-4-yl)pyrido[2,3-b]pyrazine], the EC50 lay within 500 to 3000 nM; the “hTREM2 Emax” value was “+++ (Emax>150 and ≤250)”.
`Cc1nc2nc(N3CC[C@H](C(F)F)C3)nc(-c3ccc(Cl)cc3F)c2nc1C` [Example 247, (S)-4-(4-chloro-2-fluorophenyl)-2-(3-(difluoromethyl)pyrrolidin-1-yl)-6,7-dimethylpteridine]: the EC50 is 50 to 500 nM; the “hTREM2 Emax” value was “+++ (Emax>150 and ≤250)”.
For the compound `Cc1ccc(-c2nc([C@H]3CCO[C@@H](c4cnn(C)c4)C3)cc3nc(C)c(C)nc23)c(F)c1` (single isomer, unassigned) [Example 196], the EC50 was at most 50 nM; the “hTREM2 Emax” value is “+++ (Emax>150 and ≤250)”.
Take `Cc1ccc(-c2nc(N3CCO[C@@H](c4cnn(C)c4)C3)nc3nc(C)c(C)nc23)c(F)c1` [Example 37, 4-(2-fluoro-4-methylphenyl)-6,7-dimethyl-2-((2S)-2-(1-methyl-1H-pyrazol-4-yl)-4-morpholinyl)pteridine]: the EC50 is at most 50 nM; the “hTREM2 Emax” value was “+++ (Emax>150 and ≤250)”.
In the case of `Cc1cc2c(-c3ccc(F)cc3F)nc(N3CCO[C@@H](c4cnn(C5CC5)c4)C3)nc2nc1C` [Example 169, 2-((2S)-2-(1-cyclopropyl-1H-pyrazol-4-yl)-4-morpholinyl)-4-(2,4-difluorophenyl)-6,7-dimethylpyrido [2,3-d]pyrimidine], the EC50 is at most 50 nM; the “hTREM2 Emax” value is “+++ (Emax>150 and ≤250)”.
For the compound `Cc1ccc2c(n1)nc(N1CCO[C@@H](c3cnn(C)c3)C1)nc2[C@H]1CC[C@@H](C(F)(F)F)CC1` [Example 142, 7-methyl-2-((2S)-2-(1-methyl-1H-pyrazol-4-yl)-4-morpholinyl)-4-(cis-4-(trifluoromethyl)cyclohexyl)pyrido [2,3-d]pyrimidine], the EC50 is 3000 to 100000 nM; the “hTREM2 Emax” value was “++ (Emax>100 and ≤150)”.
`Cc1cnc2c(-c3ccc(F)cc3F)nc(N3CCO[C@@H](c4cnn(C)c4)C3)nc2n1` [Example 6, 4-(2,4-difluorophenyl)-7-methyl-2-((2S)-2-(1-methyl-1H-pyrazol-4-yl)-4-morpholinyl)pteridine]: the EC50 lay within 50 to 500 nM; the “hTREM2 Emax” value is “+++ (Emax>150 and ≤250)”.
For the compound `Cc1nc2cc(N3CCO[C@@H](c4cnn(C)c4)C3)cc(-c3ccc(F)cc3F)c2nc1C` [Example 164, 5-(2,4-difluorophenyl)-2,3-dimethyl-7-((2S)-2-(1-methyl-1H-pyrazol-4-yl)-4-morpholinyl) quinoxaline], the EC50 was at most 50 nM and the “hTREM2 Emax” value was “++++ (Emax>250)”.
On to `Cc1cnc2c(-c3ccc(Cl)cc3F)cc(N3CCO[C@@H](c4cnn(C)c4)C3)nc2n1` [Example 159, 8-(4-chloro-2-fluorophenyl)-3-methyl-6-((2S)-2-(1-methyl-1H-pyrazol-4-yl)-4-morpholinyl)pyrido [2,3-b]pyrazine], for which the EC50 fell in the range of 50 to 500 nM; the “hTREM2 Emax” value was “+++ (Emax>150 and ≤250)”.
Turning to `Cc1cc([C@@H]2C[C@H](c3nc(-c4ccc(Cl)cc4F)c4nc(C)c(C)nc4n3)CCO2)ccn1` (single isomer, unassigned) [Example 206], the EC50 lay within 50 to 500 nM and the “hTREM2 Emax” value is “++++ (Emax>250)”.
In the case of `Cc1nc2nc([C@H]3C[C@@H](C)O[C@@H](c4cnn(C)c4)C3)nc(-c3ccc(Cl)cc3F)c2nc1C` (single isomer, unassigned) [Example 216], the EC50 is at most 50 nM; the “hTREM2 Emax” value is “+++ (Emax>150 and ≤250)”.
As to `Cc1nc2nc(N3CCC(F)(F)[C@@H](c4cnn(C)c4)C3)nc(-c3ccc(Cl)cc3F)c2nc1C` (single isomer, unassigned) [Example 123], the EC50 was at most 50 nM; the “hTREM2 Emax” value was “+++ (Emax>150 and ≤250)”.
Take `Cc1cc(Cl)ccc1-c1nc(N2CCO[C@@H](c3cnn(C)c3)C2)nc2nc(C)c(C)nc12` [Example 58, 4-(4-chloro-2-methylphenyl)-6,7-dimethyl-2-((2S)-2-(1-methyl-1H-pyrazol-4-yl)-4-morpholinyl)pteridine]: the EC50 fell in the range of 50 to 500 nM; the “hTREM2 Emax” value is “+++ (Emax>150 and ≤250)”.
On to `Cc1ccc2c(-c3ccc(F)cc3F)nc([C@H]3CCO[C@@H](c4cnn(C)c4)C3)nc2n1` [Example 289, 4-(2,4-difluorophenyl)-7-methyl-2-((2R,4S)-2-(1-methyl-1H-pyrazol-4-yl)tetrahydro-2H-pyran-4-yl)pyrido[2,3-d] pyrimidine], for which the EC50 fell in the range of 3000 to 100000 nM; the “hTREM2 Emax” value was “++ (Emax>100 and ≤150)”.
For the compound `Cc1cc([C@H]2CN(c3nc4nc(C)c(C)cc4c([C@H]4C[C@H](C(F)(F)F)C4)n3)CCO2)cnn1` (single isomer, unassigned) [Example 114], the EC50 is at most 50 nM; the “hTREM2 Emax” value is “+++ (Emax>150 and ≤250)”.
Turning to `Cc1nc2nc(N3CCO[C@@H](c4cnn(C5CC5)c4)C3)nc(C3CC4(C3)CC(F)(F)C4)c2nc1C` [Example 49, 2-((2S)-2-(1-cyclopropyl-1H-pyrazol-4-yl)-4-morpholinyl)-4-(6,6-difluorospiro[3.3]heptan-2-yl)-6,7-dimethylpteridine], the EC50 was at most 50 nM; the “hTREM2 Emax” value was “++ (Emax>100 and ≤150)”.
In the case of `Cc1nc2nc(N3CCO[C@@H](c4cnn(C)c4)C3)nc(C3=CC[C@H](C(F)(F)F)CC3)c2nc1C` (single isomer, unassigned) [Example 126], the EC50 was 50 to 500 nM; the “hTREM2 Emax” value is “+ (Emax>45 and ≤100)”.
Regarding `Cc1ncc([C@@H]2CN(c3nc(-c4ccc(C(F)(F)F)nc4)c4nc(C)c(C)nc4n3)CCO2)cn1` [Example 295, (R)-4-(6,7-dimethyl-4-(6-(trifluoromethyl)pyridin-3-yl)pteridin-2-yl)-2-(2-methylpyrimidin-5-yl)morpholine], the EC50 was at most 50 nM; the “hTREM2 Emax” value is “+++ (Emax>150 and ≤250)”.
Consider `Cc1nc2nc(N3CCO[C@@H](c4cnn(C)c4)C3)nc(N3CCC(F)(F)C3)c2nc1C` [Example 71, 4-(3,3-difluoro-1-pyrrolidinyl)-6,7-dimethyl-2-((2S)-2-(1-methyl-1H-pyrazol-4-yl)-4-morpholinyl)pteridine], for which the EC50 lay within 3000 to 100000 nM; the “hTREM2 Emax” value was “++ (Emax>100 and ≤150)”.
Consider `Cn1cc([C@H]2CN(c3cc4nccnc4c(-c4ccc(Cl)cc4F)n3)CCO2)cn1` [Example 233, (S)-4-(5-(4-chloro-2-fluorophenyl)pyrido[3,4-b]pyrazin-7-yl)-2-(1-methyl-1H-pyrazol-4-yl)morpholine], for which the EC50 was 3000 to 100000 nM; the “hTREM2 Emax” value is “+++ (Emax>150 and ≤250)”.

For orientation: EC50 means the concentration at which the effect is half-maximal.
